The values that follow are results of earlier work, collected in article PMC11226190 (Drug Design, Development and Therapy, 2024).

The conditions of the series: comparable publication.

Take `NC(=O)CI` [Iodoacetamide]: the “second order rate constant, DTNB assay” value was 2.5 M⁻¹ s⁻¹.
